pIC50: −log10 of the molar value.

Sequence of recombinant human MGAT2 (Q3SYC2 whole entry): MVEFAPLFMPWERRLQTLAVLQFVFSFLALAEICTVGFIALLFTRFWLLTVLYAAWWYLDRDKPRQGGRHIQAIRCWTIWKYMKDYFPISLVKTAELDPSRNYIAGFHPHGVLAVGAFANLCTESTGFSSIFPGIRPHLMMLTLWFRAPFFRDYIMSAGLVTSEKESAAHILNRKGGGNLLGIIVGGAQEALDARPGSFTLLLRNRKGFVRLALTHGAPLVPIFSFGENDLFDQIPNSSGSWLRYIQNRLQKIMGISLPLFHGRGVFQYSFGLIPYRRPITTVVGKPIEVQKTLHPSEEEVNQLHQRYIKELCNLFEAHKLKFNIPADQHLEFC

For the assay, the target named is recombinant human MGAT2 (Homo sapiens (Human), UniProt Q3SYC2). Kind of assay: Measurement of human MGAT2 inhibitory activity. The class given is biochemical. Particulars: read-out: IC50 (concentration exhibiting 50% enzyme inhibition), Table 52. As for the experimental part:
A full-length human MGAT2 gene to which a Flag-tag had been added at the N-terminal was inserted into pFastBac (from Invitrogen). A recombinant baculovirus was produced in accordance with the protocol for a Bac-to-Bac baculovirus expression system (produced by Invitrogen), and Sf-9 cells were infected therewith. The cells were collected and sonicated, and then the membrane fraction was collected through centrifugation. Western blotting analysis with an anti-Flag antibody was performed for the membrane fraction to confirm expression, and the membrane fraction was used as a recombinant human MGAT2 enzyme solution.
Solutions of the compounds of the present invention in DMSO were each aliquoted into 0.2-μL portions in a 384-well polystyrene microplate produced by Corning Incorporated, and 5 μL of an enzyme solution prepared with an assay buffer (100 mmol/L phosphate buffer (pH 7.4) containing 2 mmol/L DTT) and 5 μL of a substrate solution (100 mmol/L phosphate buffer (pH 7.4), 30 μmol/L 2-Oleoylglycerol, 10 μmol/L Oleoyl-CoA) were added thereto, and the resultant was stirred and centrifuged, and incubated in a moist chamber at room temperature for 1 hour. After enzymatic reaction, 50 μL of a quenching solution (containing 0.2 μmol/L Diolein-d5, 0.4% formic acid, and 50% isopropanol) containing Internal Standard (IS) was added to terminate the reaction, and the resultant was sealed in a plate produced by Shimadzu GLC Ltd., and then stirred and centrifuged, and measurement was performed by using an electrospray ionization method with a RapidFire360 and Agilent 6550 Q-TOF mass spectrometer. Diolein as a reaction product (P) of 2-Oleoylglycerol as the substrate and an ammonium adduct ion of the IS were detected, and the peak intensity ratio, P/IS, was calculated from the peak heights to evaluate the inhibitory activity. Inhibitory activities with/without addition of enzyme were defined as Control (+)/Control (−), respectively, and the respective % inhibitions were defined as 0% inhibition and 100% inhibition. The inhibitory activity was calculated from formula below with TIBCO Spotfire (produced by TIBCO Software Inc.): Inhibitory activity (%)=[1−{Sample−Control(−)}/{Control(+)−Control(−)}]*100 where Sample indicates a peak intensity ratio: P/IS, when the compound of the present invention was added.
With `CS(=O)(=O)CC(=O)Nc1c2c(nn1-c1ccccn1)C[C@](c1ccc(OCC(F)(F)F)cc1)(C(F)(F)F)NC2=O` [Compound I-103], the pIC50 is 6.49.
Under `CS(=O)(=O)CC(=O)Nc1c2c(nn1-c1ccccn1)C[C@@]1(CCc3cc(OCC(F)(F)F)ccc31)NC2=O` [Compound I-104] stands 7.92.
In the case of `CS(=O)(=O)CC(=O)Nc1c2c(nn1-c1ccccn1)C[C@]1(CCOc3cc(OCC(F)(F)F)ccc31)NC2=O` [Compound I-105], the pIC50 is 8.17.
For `CS(=O)(=O)CC(=O)Nc1c2c(nn1-c1ccc(C3CC3)cc1)C[C@]1(CCc3cc(OCCCC(F)(F)F)ccc31)NC2=O` [Compound I-106] the value was 7.96; for `O=C1N[C@@]2(CCc3cc(OCC(F)(F)F)cc(F)c32)Cc2nn(-c3ccccn3)c(-c3nnn[nH]3)c21` [Compound I-107], 6.12.
Under `O=C1N[C@@]2(CCc3cc(OCC(F)(F)F)ccc32)Cc2nn(CCC3CC3)c(C(=O)NS(=O)(=O)C(F)(F)F)c21` [Compound I-108] stands 8.54; under `O=C1N[C@@]2(CCc3cc(OCC(F)(F)F)ccc32)Cc2nn(CCC3CC3)c(C(=O)NS(=O)(=O)C(F)F)c21` [Compound I-109], 8.21; under `CC1(S(=O)(=O)NC(=O)c2c3c(nn2CCC2CC2)C[C@]2(CCc4cc(OCC(F)(F)F)ccc42)NC3=O)CC1` [Compound I-110], 8.00.
Under `O=C1N[C@@]2(CCc3cc(OCC(F)(F)F)ccc32)Cc2nn(CCC3CC3)c(C(=O)NS(=O)(=O)c3ccccc3)c21` [Compound I-111] stands 6.72; under `COCCS(=O)(=O)NC(=O)c1c2c(nn1CCC1CC1)C[C@]1(CCc3cc(OCC(F)(F)F)ccc31)NC2=O` [Compound I-112], 7.35; under `O=C1N[C@@]2(CCc3cc(OCC(F)(F)F)ccc32)Cc2nn(CCC3CC3)c(C(=O)NS(=O)(=O)C3CCCC3)c21` [Compound I-113], 6.09.
For the compound `COCCCS(=O)(=O)NC(=O)c1c2c(nn1CCC1CC1)C[C@]1(CCc3cc(OCC(F)(F)F)ccc31)NC2=O` [Compound I-114], the pIC50 is 6.96.
Under `CCOCCS(=O)(=O)NC(=O)c1c2c(nn1CCC1CC1)C[C@]1(CCc3cc(OCC(F)(F)F)ccc31)NC2=O` [Compound I-115] stands 7.19; under `O=C1N[C@@]2(CCc3cc(OCC(F)(F)F)ccc32)Cc2nn(CCC3CC3)c(C(=O)NS(=O)(=O)CC3CC3)c21` [Compound I-116], 6.59.
Under `CC(C)S(=O)(=O)NC(=O)c1c2c(nn1CCC1CC1)C[C@]1(CCc3cc(OCC(F)(F)F)ccc31)NC2=O` [Compound I-117] stands 7.29.
For `CC(C)(C)S(=O)(=O)NC(=O)c1c2c(nn1CCC1CC1)C[C@]1(CCc3cc(OCC(F)(F)F)ccc31)NC2=O` [Compound I-118] the value was 6.43; for `O=C1N[C@@]2(CCc3cc(OCC(F)(F)F)ccc32)Cc2nn(CCC3CC3)c(C(=O)NS(=O)(=O)Cc3ccccc3)c21` [Compound I-119], 6.82; for `CCS(=O)(=O)NC(=O)c1c2c(nn1CCC1CC1)C[C@]1(CCc3cc(OCC(F)(F)F)ccc31)NC2=O` [Compound I-120], 7.34.
Regarding `O=C1N[C@@]2(CCc3cc(OCC(F)(F)F)ccc32)Cc2nn(CCC3CC3)c(C(=O)NS(=O)(=O)C3CCC3)c21` [Compound I-121], the pIC50 is 7.33.
Regarding `CS(=O)(=O)CC(=O)Nc1c2c(nn1-c1ccc(C#N)cn1)C[C@@]1(CCc3cc(N4CC(C(F)(F)F)C4)ccc31)NC2=O` [Compound I-122], the pIC50 was 8.74.
For `CS(=O)(=O)CC(=O)Nc1c2c(nn1-c1cccc(F)c1)C[C@]1(CCc3cc(OCC(F)(F)F)ccc31)NC2=O` [Compound I-123] the value was 7.26; for `CS(=O)(=O)CC(=O)Nc1c2c(nn1-c1cccc(Cl)c1)C[C@]1(CCc3cc(OCC(F)(F)F)ccc31)NC2=O` [Compound I-124], 7.66.
For `CS(=O)(=O)CC(=O)Nc1c2c(nn1-c1cccc(C(F)(F)F)c1)C[C@]1(CCc3cc(OCC(F)(F)F)ccc31)NC2=O` [Compound I-125] the value was 6.28; for `CS(=O)(=O)CC(=O)Nc1c2c(nn1-c1cccc(OC(F)(F)F)c1)C[C@]1(CCc3cc(OCC(F)(F)F)ccc31)NC2=O` [Compound I-126], 6.15.
For `CS(=O)(=O)CC(=O)Nc1c2c(nn1-c1cc(F)cc(F)c1)C[C@]1(CCc3cc(OCC(F)(F)F)ccc31)NC2=O` [Compound I-127] the value was 6.98; for `CS(=O)(=O)CC(=O)Nc1c2c(nn1-c1cc(Cl)cc(Cl)c1)C[C@]1(CCc3cc(OCC(F)(F)F)ccc31)NC2=O` [Compound I-128], 7.39; for `Cc1cc(C)cc(-n2nc3c(c2NC(=O)CS(C)(=O)=O)C(=O)N[C@@]2(CCc4cc(OCC(F)(F)F)ccc42)C3)c1` [Compound I-129], 7.58.
As for `CS(=O)(=O)CC(=O)Nc1c2c(nn1-c1cc(C(F)(F)F)cc(C(F)(F)F)c1)C[C@]1(CCc3cc(OCC(F)(F)F)ccc31)NC2=O` [Compound I-130], the pIC50 was 6.30.
Under `CS(=O)(=O)CC(=O)Nc1c2c(nn1-c1ccc(F)c(F)c1)C[C@]1(CCc3cc(OCC(F)(F)F)ccc31)NC2=O` [Compound I-131] stands 8.28; under `Cc1ccc(-n2nc3c(c2NC(=O)CS(C)(=O)=O)C(=O)N[C@@]2(CCc4cc(OCC(F)(F)F)ccc42)C3)cc1C` [Compound I-132], 8.02; under `CS(=O)(=O)CC(=O)Nc1c2c(nn1-c1ccc(C#N)cc1)C[C@]1(CCc3cc(OCC(F)(F)F)ccc31)NC2=O` [Compound I-133], 7.85.
For `Cc1cccc(-n2nc3c(c2NC(=O)CS(C)(=O)=O)C(=O)N[C@@]2(CCc4cc(OCC(F)(F)F)ccc42)C3)n1` [Compound I-134] the value was 6.47.
`Cc1ccnc(-n2nc3c(c2NC(=O)CS(C)(=O)=O)C(=O)N[C@@]2(CCc4cc(OCC(F)(F)F)ccc42)C3)c1` [Compound I-135]: the pIC50 is 8.51.
`CS(=O)(=O)CC(=O)Nc1c2c(nn1CCCC(F)(F)F)C[C@@]1(CCc3cc(OCC(F)(F)F)cc(F)c31)NC2=O` [Compound I-136]: the pIC50 was 8.39.
For `CS(=O)(=O)CC(=O)Nc1c2c(nn1-c1ccc(C#N)cn1)C[C@@]1(CCc3cc(OCC(F)(F)F)cc(F)c31)NC2=O` [Compound I-137] the value was 8.77; for `CS(=O)(=O)NCc1c2c(nn1CCC1CC1)C[C@]1(CCc3cc(OCC(F)(F)F)ccc31)NC2=O` [Compound I-138], 6.26.
With `CCc1ccc(-n2nc3c(c2NC(=O)CS(C)(=O)=O)C(=O)N[C@@]2(CCc4cc(OCCCC(F)(F)F)ccc42)C3)cc1` [Compound I-139], the pIC50 was 8.39.
`O=C1N[C@@]2(CCc3cc(OCC(F)(F)F)ccc32)Cc2nn(CCC3CC3)c(CNS(=O)(=O)C3CCCC3)c21` [Compound I-140]: the pIC50 is 6.14.
Under `CC(C)S(=O)(=O)NCc1c2c(nn1CCC1CC1)C[C@]1(CCc3cc(OCC(F)(F)F)ccc31)NC2=O` [Compound I-141] stands 6.37.
Under `O=C1N[C@@]2(CCc3cc(OCC(F)(F)F)ccc32)Cc2nn(CCC3CC3)c(CNS(=O)(=O)C3CCOCC3)c21` [Compound I-142] stands 6.57; under `O=C1N[C@@]2(CCc3cc(OCC(F)(F)F)ccc32)Cc2nn(CCC3CC3)c(CNS(=O)(=O)C3CCC3)c21` [Compound I-143], 6.29.
For `O=C1N[C@@]2(CCc3cc(OCC(F)(F)F)ccc32)Cc2nn(CCC3CC3)c(CNS(=O)(=O)CCO)c21` [Compound I-144] the value was 6.40; for `O=C1N[C@@]2(CCc3cc(OCC(F)(F)F)ccc32)Cc2nn(CCC3CC3)c(CNC(=O)C3CC3)c21` [Compound I-145], 7.08.
Take `Cc1ccccc1C(=O)NCc1c2c(nn1CCC1CC1)C[C@]1(CCc3cc(OCC(F)(F)F)ccc31)NC2=O` [Compound I-146]: the pIC50 is 6.38.
Turning to `O=C1N[C@@]2(CCc3cc(OCC(F)(F)F)ccc32)Cc2nn(CCC3CC3)c(CNC(=O)C3CCC3)c21` [Compound I-147], the pIC50 is 7.41.
`O=C(CC(F)(F)F)NCc1c2c(nn1CCC1CC1)C[C@]1(CCc3cc(OCC(F)(F)F)ccc31)NC2=O` [Compound I-148]: the pIC50 is 8.25.
For `O=C(NCc1c2c(nn1CCC1CC1)C[C@]1(CCc3cc(OCC(F)(F)F)ccc31)NC2=O)c1cccc(O)c1` [Compound I-149] the value was 6.16; for `O=C(NCc1c2c(nn1CCC1CC1)C[C@]1(CCc3cc(OCC(F)(F)F)ccc31)NC2=O)c1ncco1` [Compound I-150], 7.00.
Under `O=C(NCc1c2c(nn1CCC1CC1)C[C@]1(CCc3cc(OCC(F)(F)F)ccc31)NC2=O)c1ccon1` [Compound I-151] stands 6.74; under `O=C(NCc1c2c(nn1CCC1CC1)C[C@]1(CCc3cc(OCC(F)(F)F)ccc31)NC2=O)c1ccno1` [Compound I-152], 6.52.

(Values after patent publication US11198695B2, “Fused ring derivative having MGAT-2 inhibitory activity” (Shionogi & Co., Ltd., priority 2017, dated 2021).)
